The source of these data is patent US20060178424A1, “Preventing atrial fibrillation (af) with the use of stain drugs” (priority 2003, published 2006).

Data set [1] concerns atrial tachycardia-induced remodeling. Particulars: dog, cited from earlier work; for Prevention of effects of 1-week atrial tachycardia: literature refs 7-9.
Data set [2] is described as follows: General properties (body weight, hemodynamic variables) at open-chest study. It counts as in vivo, dog. Particulars: mean±SEM; for Body weight: ATP with oral treatment. An excerpt:
(§1) Unipolar leads were inserted through jugular veins into the right ventricular (RV) apex and right atrial (RA) appendage under fluoroscopic guidance and connected to pacemakers (Medtronic) in subcutaneous pockets in the neck. A bipolar electrode was also inserted into the RA for atrial stimulation and recording during serial electrophysiological study (EPS). AV block was created by radiofrequency catheter ablation to control ventricular response during atrial tachypacing (ATP) and the RV pacemaker was programmed to pace at 80 bpm.
(§2) Body temperature was maintained at 37° C., and a femoral artery and both femoral veins were cannulated for pressure monitoring and drug administration. A median sternotomy was performed, and bipolar electrodes were hooked to the RA and left atrial (LA) appendage for recording and stimulation. A programmable stimulator (Digital Cardiovascular Instruments) was used to deliver twice-threshold currents. […] AF duration was assessed as described above and AF vulnerability was determined as the percentage of atrial sites at which AF could be induced by single extrastimuli.

For data set [3], the system named is atrial tachypaced dogs (atrial tachycardia-induced remodeling). Put plainly: Serial closed-chest electrophysiological study during 7-day atrial tachypacing (400 bpm). Particulars: 7-day ATP, in words. It counts as in vivo, dog.
Text: as §1
(§3) After 24 hours for recovery, a baseline closed-chest EPS was performed under anesthesia with ketamine, diazepam, and isoflurane, and then ATP (400 bpm) was initiated. Closed-chest EPS was repeated at 2,4 and 7 days of ATP and a final open-chest EPS was performed on day 8 under anesthesia with morphine and α-chloralose.

Data set [4] has the same test system. Kind of data set: Final open-chest electrophysiological study after atrial tachypacing. It counts as in vivo, dog.
Text: as §1, §3, §2

Entries after “also recorded” stand apart in the source; their conditions may differ.

As to `CCCCc1oc2ccccc2c1C(=O)c1cc(I)c(OCCN(CC)CC)c(I)c1` [amiodarone], the “Prevention of effects of 1-week atrial tachycardia” value in data set [1] is “prevent the effects of 1-week atrial tachycardia in the dog”.

In the case of `COCC(=O)O[C@]1(CCN(C)CCCc2nc3ccccc3[nH]2)CCc2cc(F)ccc2[C@@H]1C(C)C` [mibefradil], the “Prevention of effects of 1-week atrial tachycardia” value in data set [1] is reported as “prevent the effects of 1-week atrial tachycardia in the dog”.

Regarding `CCC(C)(C)C(=O)O[C@H]1C[C@@H](C)C=C2C=C[C@H](C)[C@H](CC[C@@H]3C[C@@H](O)CC(=O)O3)[C@H]21` [simvastatin], in data set [2], the “Diastolic BP” value was 60 ± 7 mm Hg, the “HR (heart rate)” value came to 169 ± 6 bpm, the “LAP (left atrial pressure)” value amounted to 8 ± 1 mm Hg and the “LVEDP (left ventricular end-diastolic pressure)” value worked out at 9 ± 1 mm Hg. Further, in data set [2], the “LVSP (left ventricular systolic pressure)” value is given as 127 ± 5 mm Hg, the “Systolic BP” value worked out at 131 ± 4 mm Hg and the Body weight was found to be 29 ± 2 kg.

Take `O=C1O[C@H]([C@@H](O)CO)C(O)=C1O` [vitamin C]: in data set [3], the “Atrial tachycardia-induced AF promotion (AF duration progression) versus ATP-only” value is given as “not significantly different from ATP-only dogs”. In data set [4] (RA appendage, final open-chest study, in words), the “ERP values as a function of cycle length versus ATP-only dogs” value is “No significant differences”. Besides, in data set [4] (following ATP, ATP-only 57%), the “AF requiring cardioversion for termination, share of dogs” value was 33%. Also, in data set [4] (one week of atrial tachypacing, in words), the “Effect on tachypacing-induced ERP shortening and AF promotion (remodeling)” value is “unaffected; also recorded: not altered; also recorded: not shared; also recorded: not observed”. Moreover, in data set [2], the “Diastolic BP” value came out at 41 ± 6 mm Hg, the “HR (heart rate)” value was determined as 145 ± 9 bpm, the “LAP (left atrial pressure)” value is 5 ± 1 mm Hg and the “LVEDP (left ventricular end-diastolic pressure)” value was 6 ± 1 mm Hg. For the same compound, in data set [2], the “LVSP (left ventricular systolic pressure)” value is given as 107 ± 8 mm Hg, the “Systolic BP” value is on record as 107 ± 8 mm Hg and the Body weight was 32 ± 2 kg. Further, in data set [1] (Carnes et al), the “Attenuation of ERP changes caused by 48-hour atrial tachycardia” value is given as “effectiveness”.
